Measurements from publication PMC11931565, “Exploring medium and long arm extensions of 1,2,4-triazole derivatives as Candida albicans 14α-demethylase (CYP51) inhibitors” (RSC Medicinal Chemistry, 2025).
Converted amounts (≈) assume the structure as drawn. Where two headings read alike, the source gives them in different places.

Legend:
[1] = target: T1, C. albicans CYP51 (CaCYP51) (Candida albicans, UniProt P10613); experiment: CaCYP51 reconstitution assay (IC50); format: biochemical; settings: 1 μM CaCYP51, 60 μM lanosterol, 15 min at 37 °C
T1 construct: made in house; host or cells: E. coli
Experimental: Derivatives with a MIC <1 μg mL^−1 were chosen for IC50 testing.
C. albicans CYP51 was overexpressed in E. coli and purified and CaCYP51 reconstitutions assays performed.[10,37] The final reaction volume of 500 μL, contained; 1 μM C. albicans CYP51, 2 μM Homo sapiens cytochrome P450 reductase (CPR) (UniProtKB accession number P16435), 60 μM lanosterol, 50 μM dilaurylphosphatidylcholine, 4% w/v 2-hydroypropyl-cyclodextrin, 0.4 mg mL^−1 isocitrate dehydrogenase, 25 mM trisodium isocitrate, 50 mM NaCl, 5 mM MgCl2, and 40 mM MOPS (morpholinepropanesulfonic acid, pH 7.2). Antifungal compounds were added in 2.5 μL DMSO. The reaction was started by the addition of 4 mM NADPH-tetrasodium salt. Samples were shaken for 15 min at 37 °C and sterol metabolites extracted with ethyl acetate and derivatised with BSTFA.

[2] = test system: S. cerevisiae Y570 overexpressing C. albicans ABC transporter CDR1B; experiment: MIC, recombinant S. cerevisiae strain Y570 CaCDR1B; format: cell-based; settings: SD medium pH 6.8, 30 °C; 80% inhibition of growth
Experimental: (§1) The most promising thiazole derivative 7b, and the extended amide derivatives 13a and 13b were evaluated against a panel of recombinant S. cerevisiae strains[24,31,32] expressing control levels of wild-type CYP51 (ScCYP51), overexpressed wild-type ScCYP51, overexpressed azole-resistant ScCYP51 Y140F/H mutations (S. cerevisiae Y140 equivalent to C. albicans Y132), overexpressed C. albicans efflux pumps MDR1a or CDR1B and overexpressed H. sapiens wild-type CYP51 (HsCYP51) (Table 3) at 24 and 48 h with each assay performed in triplicate.
(§2) Minimum inhibitory concentration (MIC) were determined according to recommendations outlined in the Clinical and Laboratory Standards Institute (CLSI) document M27-Ed4E[39] with modifications. Sabouraud dextrose (SD) medium (pH 6.8) was used instead of RPMI-1640 for inoculum and growth of the S. cerevisiae strains and cultures were incubated at 30 °C. […] Stock solutions of each agent were prepared in DMSO and the final concentration of DMSO was 1% (v/v) in SD. […] The final concentration of all other compounds ranged from 0.03–16 μg mL^−1. Three biological repeats were performed.

[3] = test system: S. cerevisiae Y2300 overexpressed wild-type ScCYP51; experiment: MIC, recombinant S. cerevisiae strain Y2300 ScCYP51; format: cell-based; settings: Saccharomyces cerevisiae; SD medium pH 6.8, 30 °C; 80% inhibition of growth; read-out: MIC Y2300 ScCYP51
Experimental: as §1, §2

[4] = test system: S. cerevisiae Y525 overexpressing C. albicans MFS transporter MDR1a; experiment: MIC, recombinant S. cerevisiae strain Y525 CaMDR1a; format: cell-based; settings: SD medium pH 6.8, 30 °C; 80% inhibition of growth
Experimental: as §2

[5] = test system: S. cerevisiae Y2301 overexpressed ScCYP51 Y140F; experiment: MIC, recombinant S. cerevisiae strain Y2301 Y140F; format: cell-based; settings: Saccharomyces cerevisiae, pH 6.8, read-out: MIC Y2301 Y140F
Experimental: as §1, §2

[6] = test system: C. albicans wild-type clinical isolate CA14; experiment: C. albicans susceptibility testing (CLSI broth microdilution MIC), strain CA14; format: cell-based, Candida albicans; settings: RPMI 1640, 37 °C, read at 48 h; for MIC: Candida albicans
Excerpt: (§3) Each novel compound was screened against C. albicans wild-type clinical isolate CA14 and C. albicans laboratory strain SC5314 using the standardised CLSI M27-S4 broth dilution method.[28] […] This might be explained by the clog P data as the more lipophilic compounds should more readily penetrate the fungal membrane resulting in improved uptake or may relate to optimal fill of the small hydrophobic pocket leading to improved binding.
(§4) Antifungal MIC values were obtained according to the CLSI microdilution method for yeasts.[28]C. albicans strains CA14 and SC5314 were tested in triplicate. Cultures were diluted to 2.5 × 10^3 cells per mL in RPMI 1640 (Sigma), buffered with 0.165 M MOPS, pH 7.0. Antifungal compounds were dissolved in DMSO and added at a final concentration of 1% v/v DMSO. Plates were incubated at 37 °C and read at 48 h.

[7] = test system: S. cerevisiae Y2411 parent (control levels of wild-type ScCYP51); experiment: MIC, recombinant S. cerevisiae strain Y2411 parent; format: cell-based; settings: Saccharomyces cerevisiae; SD medium pH 6.8, 30 °C; 80% inhibition of growth; read-out: MIC Y2411 parent
Experimental: as §1, §2

[8] = test system: S. cerevisiae Y2760 overexpressed H. sapiens wild-type CYP51 (HsCYP51); experiment: MIC, recombinant S. cerevisiae strain Y2760 HsCYP51; format: cell-based; settings: Saccharomyces cerevisiae; SD medium pH 6.8, 30 °C; 80% inhibition of growth; read-out: MIC Y2760 HsCYP51
Experimental: as §1
The HsCYP51 ORF (NP_000777.1) was codon harmonized (ch) using DNA 2.0 for expression in S. cerevisiae and synthesized by ATUM (Newark, Ca, USA). The 3′ end of the ORF was extended to encode EQKI of the ScErg11 C-terminus, followed by a GGR linker and a 6xHis tag. Strain Y2514 was prepared by transforming host strain Y1857 with a transformation cassette including the above construct together with the ScPGK transcription terminator and URA3 selection marker located downstream, bordered by upstream and downstream parts of ScPDR5 gene identical to sequences in ScErg11 over-expressing strain Y941. Strain Y2514 constitutively overexpressed HsCYP51ch-6xHis and URA3 from the ScPDR5 locus.
Strain Y2757 (Y2514, PDR15::HsCPRch-6xHis-LoxP-HIS1-LoxP) was prepared by co-expressing the cognate reductase HsCRP in strain Y2514. Codon harmonisation and synthesis of human NADPH-cytochrome P450 reductase isoform 2 (HsCPRch, NP_001369584.1) ORF was performed by ATUM. The gene was 3′ extended with a sequence encoding GGR-6xHIS. A transformation cassette was prepared by recombinant PCR to include the HsCPRch ORF with 657 nucleotides the ScPDR5 promoter upstream, and the ScPGK terminator followed by the LoxP flanked ScHIS1 selection marker downstream. ScPDR15 specific arms bordering the construct enabled the cassette to be integrated between the nucleotide 441 of the 5′ UTR and nucleotide 1 of the 3′ UTR in PDR15.
Strain Y2758 (Y2757 ΔHIS1) was made using the following steps. Strain Y2757 was transformed with the pSH69 pGAL1-cre plasmid (Euroscarf, Germany) via selection on hygromycin (75 μg mL^−1) containing YPD plates. A single hygromycin positive colony was inoculated in 1% yeast extract, 2% peptone and 2% of galactose broth and incubated for 16 hours at 30 °C with shaking. The diluted culture was then plated on YPD agar and replica-plated on YPD + hygromycin and SD-HIS dropout agar plates. Deletion of the HIS selection marker downstream of HsCPRch-6xHis in the PDR15 locus was confirmed in double His and hygromycin negative isolates by PCR and DNA sequence analysis.
The endogenous ScERG11 ORF in strain Y2758 was removed by transforming with a LoxP- ScHIS1 containing cassette with arms complementing from +387 nucleotides in the 5′UTR and −60 nucleotides in the 3′UTR of the ScERG11 locus, resulting in strain Y2760 (ADΔΔ PDR5::HsCYP51ch-6×HIS-URA3; PDR15::HsCPRch6×HIS-LoxP, ΔERG11-LoxP-HIS1-LoxP).
as §2

native CaCYP51 = target: T2, native CaCYP51 (Candida albicans, UniProt P10613); experiment: CaCYP51 type II ligand binding affinity (Kd) from difference spectra saturation curves
T2 construct: made in house; host or cells: E. coli
Experimental: Azole titration was performed in triplicate.
The ligand–CaCYP51 complex was determined by non-linear regression (Levenberg–Marquardt algorithm) using a rearrangement of the Morrison equation for tight ligand binding,[38] while weak ligand binding was calculated by the Michaelis–Menten equation. Curve fitting for novel azole saturation curves was performed using the computer program ProFit 6.1.12 (QuantumSoft, Zurich, Switzerland) for Mac OSX. Kd values were determined for each of the three replicate titrations per azole compound and then mean Kd values and standard deviations calculated.

[9] = test system: S. cerevisiae Y2513 overexpressed ScCYP51 Y140H; experiment: MIC, recombinant S. cerevisiae strain Y2513 Y140H; format: cell-based; settings: Saccharomyces cerevisiae, pH 6.8, read-out: MIC Y2513 Y140H
Experimental: as §1, §2

[10] = test system: C. albicans laboratory strain SC5314; experiment: C. albicans susceptibility testing (CLSI broth microdilution MIC), strain SC5314; format: cell-based, Candida albicans; settings: RPMI 1640, 37 °C, read at 48 h; for MIC: Candida albicans, SC5314, 48 h
Excerpt: as §3, §4

[11] = 2.5 μM native CaCYP51, mean ± SD of three titrations, read-out: K d

T1 sequence (P10613 whole entry): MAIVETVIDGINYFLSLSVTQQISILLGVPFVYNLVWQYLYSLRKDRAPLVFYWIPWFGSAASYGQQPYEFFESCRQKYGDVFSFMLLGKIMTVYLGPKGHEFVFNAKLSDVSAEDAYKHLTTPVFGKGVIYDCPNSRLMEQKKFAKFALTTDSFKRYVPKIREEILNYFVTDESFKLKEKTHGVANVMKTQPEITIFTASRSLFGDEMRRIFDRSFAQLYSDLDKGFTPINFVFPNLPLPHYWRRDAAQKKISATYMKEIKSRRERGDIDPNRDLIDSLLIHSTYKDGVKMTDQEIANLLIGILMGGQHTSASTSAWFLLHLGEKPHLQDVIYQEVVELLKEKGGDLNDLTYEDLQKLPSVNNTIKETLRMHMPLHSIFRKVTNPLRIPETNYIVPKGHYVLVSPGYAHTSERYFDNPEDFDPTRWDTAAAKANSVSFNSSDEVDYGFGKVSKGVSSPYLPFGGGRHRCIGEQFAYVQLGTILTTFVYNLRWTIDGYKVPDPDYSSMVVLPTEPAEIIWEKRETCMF
T2 sequence (P10613 whole entry): as above

O=C(NCC(O)(Cn1cncn1)c1ccc(Cl)cc1Cl)c1csc(Cl)n1 (stereo not shown) [7b, 2-Chloro-N-(2-(2,4-dichlorophenyl)-2-hydroxy-3-(1H-1,2,4-triazol-1-yl)propyl)thiazole-4-carboxamide]
IC50 [1]: 410 nM | MIC [2]: > 16 µg/mL | MIC [3]: 0.5 to 1 µg/mL | MIC [4]: 2 µg/mL | MIC [5]: 4 µg/mL | MIC [6]: < 0.03 µg/mL | MIC CA14 [6]: <0.03 µg/mL | MIC [7]: 0.125 µg/mL | MIC [8]: > 16 µg/mL | Kd (native CaCYP51; [11]): 106 ± 15 nM | MIC [9]: 2 to 4 µg/mL | MIC [10]: < 0.03 µg/mL | MIC SC5314 [10]: <0.03 µg/mL

O=C(NCC(O)(Cn1cncn1)c1ccc(Cl)cc1)c1ccc(NC(=O)c2ccc(Cl)cc2)cc1 (stereo not shown) [13a, 4-Chloro-N-(4-((2-(4-chlorophenyl)-2-hydroxy-3-(1H-1,2,4-triazol-1-yl)propyl)carbamoyl)phenyl)benzamide]
IC50 [1]: 560 nM | MIC [2]: > 16 µg/mL | MIC [3]: 1 to 2 µg/mL | MIC [4]: 0.125 µg/mL | MIC [5]: 1 to 2 µg/mL | MIC [6]: < 0.03 µg/mL | MIC CA14 [6]: <0.03 µg/mL | MIC [7]: 0.25 µg/mL | MIC [8]: > 16 µg/mL | Kd (native CaCYP51; [11]): 46 ± 8 nM | MIC [9]: 1 µg/mL | MIC [10]: < 0.03 µg/mL | MIC SC5314 [10]: <0.03 µg/mL

O=C(NCC(O)(Cn1cncn1)c1ccc(Cl)cc1Cl)c1ccc(NC(=O)c2ccc(Cl)cc2)cc1 (stereo not shown) [13b, 4-Chloro-N-(4-((2-(2,4-dichlorophenyl)-2-hydroxy-3-(1H-1,2,4-triazol-1-yl)propyl)carbamoyl)phenyl)benzamide]
IC50 [1]: 480 nM | MIC [2]: > 16 µg/mL | MIC [3]: 0.25 µg/mL | MIC [4]: 0.03 to 0.06 µg/mL | MIC [5]: 0.25 µg/mL | MIC [6]: < 0.03 µg/mL | MIC CA14 [6]: <0.03 µg/mL | MIC [7]: 0.03 to 0.06 µg/mL | MIC [8]: 4 to 8 µg/mL | Kd (native CaCYP51; [11]): 166 ± 39 nM | MIC [9]: 0.125 µg/mL | MIC [10]: < 0.03 µg/mL | MIC SC5314 [10]: <0.03 µg/mL

OC(Cn1cncn1)(Cn1cncn1)c1ccc(F)cc1F [FLZ, Fluconazole, reference compound]
MIC [2]: > 128 µg/mL | MIC [3]: 16 µg/mL | MIC [4]: 32 µg/mL | MIC [5]: 32 µg/mL | MIC [6]: 0.125 µg/mL (≈ 0.408 µM) | MIC [7]: 4 µg/mL | MIC [8]: > 128 µg/mL | Kd (native CaCYP51): 31 ± 8 nM | MIC [9]: 32 µg/mL | MIC [10]: 0.125 µg/mL (≈ 0.408 µM)
